Measured values taken from US20080051387A1, “TETRAHYDROPYRIDO[3,4-D]PYRIMIDINES AND RELATED ANALOGUES” (priority 2006, published 2008).

The molecules below were run against T1, chimeric human H3 receptor (Homo sapiens, UniProt Q9Y5N1) (assay: Chimeric human H3 receptor screening GTP binding assay (inhibition of histamine-stimulated GTP-gamma35S binding, Example 8)). Conditions: 1 h; assay of Example 8; symbol "!" in column headed Ki; read-out: percent inhibition of agonist-induced GTP-gammaS binding to H3.
T1 construct: rat Galpha-i2 (Gnai2, rat); made in house; host or cells: Sf9 insect cells (baculovirus); P2 membranes
Type: biochemical
Method in brief: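 Sf9 membranes co-expressing chimeric human H3 receptor and heterotrimeric G-protein (35 μg protein) incubated 60 min at room temperature with 4 μM compound, 1 μM histamine and 125 pM GTP-gamma35S in pH 7.4 buffer with 10 μM GDP. Filter-bound radioactivity, nonspecific (10 μM GTP-gammaS) subtracted, reported as % inhibition of histamine signal.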

T1 sequence (Q9Y5N1 with tags, fused parts or gaps): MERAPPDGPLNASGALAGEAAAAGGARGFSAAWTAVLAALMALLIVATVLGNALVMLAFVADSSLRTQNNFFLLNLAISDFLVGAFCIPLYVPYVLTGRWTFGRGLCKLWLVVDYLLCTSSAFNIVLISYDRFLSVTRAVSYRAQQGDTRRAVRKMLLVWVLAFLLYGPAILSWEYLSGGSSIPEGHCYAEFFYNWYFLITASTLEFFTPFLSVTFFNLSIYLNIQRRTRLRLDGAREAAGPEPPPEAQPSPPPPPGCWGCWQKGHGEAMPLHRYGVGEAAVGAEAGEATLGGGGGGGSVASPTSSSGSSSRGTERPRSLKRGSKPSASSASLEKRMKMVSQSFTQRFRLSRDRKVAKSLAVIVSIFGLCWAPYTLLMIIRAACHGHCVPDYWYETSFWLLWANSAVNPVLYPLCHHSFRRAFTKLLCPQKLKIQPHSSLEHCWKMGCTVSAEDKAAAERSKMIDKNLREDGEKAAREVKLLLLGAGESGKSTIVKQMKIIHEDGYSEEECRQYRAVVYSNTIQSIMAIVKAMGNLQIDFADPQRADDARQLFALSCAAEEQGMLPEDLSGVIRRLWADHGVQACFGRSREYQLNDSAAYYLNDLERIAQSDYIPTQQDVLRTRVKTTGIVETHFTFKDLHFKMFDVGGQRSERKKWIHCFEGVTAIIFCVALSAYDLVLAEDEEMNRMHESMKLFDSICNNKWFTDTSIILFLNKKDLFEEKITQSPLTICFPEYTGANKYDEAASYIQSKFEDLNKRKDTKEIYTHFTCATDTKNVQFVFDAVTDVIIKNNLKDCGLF

inhibition at 4 µM [%] | Compound
≥ 90 | O=C(Cc1ccc(Cl)cc1Cl)N1CCc2cnc(N3CCN(C4CCC4)CC3)nc2CC1 [Compound 296, 2-(4-cyclobutylpiperazin-1-yl)-7-[(2,4-dichlorophenyl)acetyl]-6,7,8,9-tetrahydro-5H-pyrimido[4,5-d]azepine]
≥ 90 | O=C(Cc1ccccc1Br)N1CCc2cnc(N3CCN(C4CCC4)CC3)nc2CC1 [Compound 297, 7-[(2-bromophenyl)acetyl]-2-(4-cyclobutylpiperazin-1-yl)-6,7,8,9-tetrahydro-5H-pyrimido[4,5-d]azepine]
≥ 90 | O=C(Cc1c(F)cccc1Cl)N1CCc2cnc(N3CCN(C4CCC4)CC3)nc2CC1 [Compound 298, 7-[(2-chloro-6-fluorophenyl)acetyl]-2-(4-cyclobutylpiperazin-1-yl)-6,7,8,9-tetrahydro-5H-pyrimido[4,5-d]azepine]
≥ 90 | COc1cc(Br)c(CC(=O)N2CCc3cnc(N4CCN(C5CCC5)CC4)nc3CC2)cc1OC [Compound 299, 7-[(2-bromo-4,5-dimethoxyphenyl)acetyl]-2-(4-cyclobutylpiperazin-1-yl)-6,7,8,9-tetrahydro-5H-pyrimido[4,5-d]azepine]
≥ 90 | O=C(Cc1c(Cl)ccc(Cl)c1Cl)N1CCc2cnc(N3CCN(C4CCC4)CC3)nc2CC1 [Compound 300, 2-(4-cyclobutylpiperazin-1-yl)-7-[(2,3,6-trichlorophenyl)acetyl]-6,7,8,9-tetrahydro-5H-pyrimido[4,5-d]azepine]
≥ 90 | O=C(Cc1cc(Cl)ccc1Br)N1CCc2cnc(N3CCN(C4CCC4)CC3)nc2CC1 [Compound 301, 7-[(2-bromo-5-chlorophenyl)acetyl]-2-(4-cyclobutylpiperazin-1-yl)-6,7,8,9-tetrahydro-5H-pyrimido[4,5-d]azepine]
≥ 90 | O=C(Cc1ccc(F)cc1Cl)N1CCc2cnc(N3CCN(C4CCC4)CC3)nc2CC1 [Compound 302, 7-[(2-chloro-4-fluorophenyl)acetyl]-2-(4-cyclobutylpiperazin-1-yl)-6,7,8,9-tetrahydro-5H-pyrimido[4,5-d]azepine]
≥ 90 | O=C(Cc1c(Cl)cccc1Cl)N1CCc2cnc(N3CCN(C4CCC4)CC3)nc2CC1 [Compound 303, 2-(4-cyclobutylpiperazin-1-yl)-7-[(2,6-dichlorophenyl)acetyl]-6,7,8,9-tetrahydro-5H-pyrimido[4,5-d]azepine]
≥ 90 | O=C(Cc1ccccc1Oc1ccccc1)N1CCc2cnc(N3CCN(C4CCC4)CC3)nc2CC1 [Compound 304, 2-(4-cyclobutylpiperazin-1-yl)-7-[(2-phenoxyphenyl)acetyl]-6,7,8,9-tetrahydro-5H-pyrimido[4,5-d]azepine]
≥ 90 | Cc1ccccc1CC(=O)N1CCc2cnc(N3CCN(C4CCC4)CC3)nc2CC1 [Compound 305, 2-(4-cyclobutylpiperazin-1-yl)-7-[(2-methylphenyl)acetyl]-6,7,8,9-tetrahydro-5H-pyrimido[4,5-d]azepine]
≥ 90 | COc1ccccc1CC(=O)N1CCc2cnc(N3CCN(C4CCC4)CC3)nc2CC1 [Compound 306, 2-(4-cyclobutylpiperazin-1-yl)-7-[(2-methoxyphenyl)acetyl]-6,7,8,9-tetrahydro-5H-pyrimido[4,5-d]azepine]
≥ 90 | CCOc1ccccc1CC(=O)N1CCc2cnc(N3CCN(C4CCC4)CC3)nc2CC1 [Compound 307, 2-(4-cyclobutylpiperazin-1-yl)-7-[(2-ethoxyphenyl)acetyl]-6,7,8,9-tetrahydro-5H-pyrimido[4,5-d]azepine]
≥ 90 | COc1ccc(OC)c(CC(=O)N2CCc3cnc(N4CCN(C5CCC5)CC4)nc3CC2)c1 [Compound 308, 2-(4-cyclobutylpiperazin-1-yl)-7-[(2,5-dimethoxyphenyl)acetyl]-6,7,8,9-tetrahydro-5H-pyrimido[4,5-d]azepine]
≥ 90 | O=C(Cc1cccc2ccccc12)N1CCc2cnc(N3CCN(C4CCC4)CC3)nc2CC1 [Compound 309, 2-(4-cyclobutylpiperazin-1-yl)-7-(1-naphthylacetyl)-6,7,8,9-tetrahydro-5H-pyrimido[4,5-d]azepine]
≥ 90 | COc1ccc(CC(=O)N2CCc3cnc(N4CCN(C5CCC5)CC4)nc3CC2)c(OC)c1 [Compound 310, 2-(4-cyclobutylpiperazin-1-yl)-7-[(2,4-dimethoxyphenyl)acetyl]-6,7,8,9-tetrahydro-5H-pyrimido[4,5-d]azepine]
≥ 90 | COc1ccc(Br)cc1CC(=O)N1CCc2cnc(N3CCN(C4CCC4)CC3)nc2CC1 [Compound 311, 7-[(5-bromo-2-methoxyphenyl)acetyl]-2-(4-cyclobutylpiperazin-1-yl)-6,7,8,9-tetrahydro-5H-pyrimido[4,5-d]azepine]
≥ 90 | COc1cccc(CC(=O)N2CCc3cnc(N4CCN(C5CCC5)CC4)nc3CC2)c1OC [Compound 312, 2-(4-cyclobutylpiperazin-1-yl)-7-[(2,3-dimethoxyphenyl)acetyl]-6,7,8,9-tetrahydro-5H-pyrimido[4,5-d]azepine]
≥ 90 | O=C(Cc1ccccc1OC(F)(F)F)N1CCc2cnc(N3CCN(C4CCC4)CC3)nc2CC1 [Compound 313, 2-(4-cyclobutylpiperazin-1-yl)-7-{[2-(trifluoromethoxy)phenyl]acetyl}-6,7,8,9-tetrahydro-5H-pyrimido[4,5-d]azepine]
≥ 90 | O=C(Cc1ccccc1OCc1ccccc1)N1CCc2cnc(N3CCN(C4CCC4)CC3)nc2CC1 [Compound 314, 7-{[2-(benzyloxy)phenyl]acetyl}-2-(4-cyclobutylpiperazin-1-yl)-6,7,8,9-tetrahydro-5H-pyrimido[4,5-d]azepine]
≥ 90 | O=C(COc1ccccc1)N1CCc2cnc(N3CCN(C4CCC4)CC3)nc2CC1 [Compound 315, 2-(4-cyclobutylpiperazin-1-yl)-7-(phenoxyacetyl)-6,7,8,9-tetrahydro-5H-pyrimido[4,5-d]azepine]
≥ 90 | Cc1ccc(OCC(=O)N2CCc3cnc(N4CCN(C5CCC5)CC4)nc3CC2)cc1 [Compound 316, 2-(4-cyclobutylpiperazin-1-yl)-7-[(4-methylphenoxy)acetyl]-6,7,8,9-tetrahydro-5H-pyrimido[4,5-d]azepine]
≥ 90 | O=C(COc1ccc(F)cc1)N1CCc2cnc(N3CCN(C4CCC4)CC3)nc2CC1 [Compound 317, 2-(4-cyclobutylpiperazin-1-yl)-7-[(4-fluorophenoxy)acetyl]-6,7,8,9-tetrahydro-5H-pyrimido[4,5-d]azepine]
≥ 90 | COc1cc(Cl)ccc1OCC(=O)N1CCc2cnc(N3CCN(C4CCC4)CC3)nc2CC1 [Compound 318, 7-[(4-chloro-2-methoxyphenoxy)acetyl]-2-(4-cyclobutylpiperazin-1-yl)-6,7,8,9-tetrahydro-5H-pyrimido[4,5-d]azepine]
≥ 90 | O=C(COc1ccc(OC(F)(F)F)cc1)N1CCc2cnc(N3CCN(C4CCC4)CC3)nc2CC1 [Compound 319, 2-(4-cyclobutylpiperazin-1-yl)-7-{[4-(trifluoromethoxy)phenoxy]acetyl}-6,7,8,9-tetrahydro-5H-pyrimido[4,5-d]azepine]
≥ 90 | O=C(COc1ccccc1Cl)N1CCc2cnc(N3CCN(C4CCC4)CC3)nc2CC1 [Compound 320, 7-[(2-chlorophenoxy)acetyl]-2-(4-cyclobutylpiperazin-1-yl)-6,7,8,9-tetrahydro-5H-pyrimido[4,5-d]azepine]
